# Patent publication US20240360134A1, “PYRAZOLOPYRIMIDINES AND THEIR USES AS PDGFR INHIBITORS” (priority 2021, published 2024)
# Where two headings read alike, the source gives them in different places.
# Columns and labels:
# [1] = biological target: Tb-labeled inactive PDGFRβ (Homo sapiens (Human), UniProt P09619); experiment: biochemical; format: binding
# [2] = biological target: His6-TEV-PDGFRβ (557-1016) (Homo sapiens (Human), UniProt P09619); experiment: PDGFRβ HTRF Assay; format: biochemical
# Procedure: Instrumentation: a. Compound liquid handling: LabCyte Echo; b. Reagent liquid handling: Thermo Scientific Multidrop Combi; c. BMG PHERAStar multilabel plate reader.
# Protein Reagent: His6-TEV-PDGFRβ Protein Prep prepared at Accelagen.
# Assay buffer stock solution, contains 50 mM Hepes, 10 mM MgCl2, 1 mM EGTA, and 0.01% Brij-35, 0.01% ovalbumin, 2 mM DTT at pH 7.5, in molecular biology grade water. Store at room temperature.
# Assay buffer. Dilute 5× Kinase buffer 5-fold with molecular biology grade water and add DTT to 2 mM and ovalbumin to 0.1 mg/mL (or 0.01%).
# 2× protein solution. Make a working solution of […] PDGFRβ in assay buffer. Keep on ice until use to maintain enzyme stability.
# 2× substrate solution. Make a working solution of 1.6 mM ATP and 1 μM TK-substrate biotin peptide in assay buffer. 3× quench/detection solution.
# Step 2. PDGFRβ E+I pre-incubation: Add 2 μL 2× protein solution to columns 1-24 using the Multidrop Combi. Centrifuge at 1000 rpm for 1 min. Incubate 30 min at RT
# Step 2. Enzymatic reaction: Add 2 μL substrate solution to columns 1-24 to initiate the reaction using the Multidrop Combi; cover/seal the assay plate to reduce evaporation. Centrifuge at 1000 rpm for 1 min. Incubate at room temperature for 3 hours.
# Final concentrations of components in PDGFRp cascade assay:
# 0.5 μM TK-substrate biotin peptide
# Step 3. Quench/Detection: Add 2 μl 3× quench/detection solution to columns 1-24 using the Multidrop Combi; cover/seal the plate. Centrifuge 1 min 1000 rpm. Incubate at RT for 60 min.
# HTRF ratio values calculated by the instrument (Ratio is acceptor counts/donor counts*10,000) is exported from the plate reader and used in data analysis. The exported data will be used to calculate 1) compound activity and 2) assay statistics. […] Assay statistics can include Robust Z′ and Signal to Background.
# % Inhibition Calculation: Percent inhibition will be calculated for sample wells based on the equation: […]
# IC50 Calculation: For IC50 determination, full 11-point dose response data will be processed using the following equation: […]
# [3] = biological target: VEGFR2, unphosphorylated (Homo sapiens (Human), UniProt P35968); experiment: VEGFR ADP GLO assay; format: biochemical; details: 5 nM VEGFR2, 1.2 mM ATP, 1 mg/mL Srctide, 180 min
# Procedure: Assay buffer stock contains 50 mM HEPES pH7.5, 10 mM MgCl2, 0.01% Brij-35, and 1 mM EGTA.
# Unphosphorylated VEGFR2. 52.6 μM in 50 mM Tris-HCl, pH 8.0, 50 mM NaCl, 5% Glycerol, 0.5 mM TCEP. Store at −80° C. in aliquots.
# 10 mg/mL srctide solution, prepared in Assay buffer (Assay buffer stock with 2 mM DTT, 0.1% Pluronic F-127, and 0.1 mg/mL ovalbumin). Sonicate 10 mg/ml Srctide solution for 10 minutes and then vacuum filter.
# Assay buffer. Add DTT to 2 mM, Pluronic F-127 to 0.1% and ovalbumin to 0.1 mg/mL to Assay buffer stock.
# 2× kinase solution. Make a working solution of 10 nM unphosphorylated VEGFR2 in Assay buffer. Vacuum filter 2× kinase solution prior to running assay. Keep on ice until use.
# 2× substrate/ATP solution. Make a working solution of 2 mg/mL srctide and 2.4 mM ATP in Assay buffer. Keep on ice until use.
# Step 1. Dispensing inhibitors/controls: Using Echo, dispense 10 nL/well compound serial dilutions in DMSO to columns 1-22 (in 384-well plates) or columns 1-44 (in 1536-well plates). Dilution series=11 pt, 3-fold dilutions. The top compound concentration in the source plate is 4 mM. The top compound concentration in the assay plate is 10 uM. Using Echo, dispense 10 nl/well DMSO to column 23 (in 384-well plates) or columns 45-47 (in 1536-well plates). These wells will serve as negative control wells Using Echo, dispense 10 nl/well 400 uM TAK-593 in DMSO to column 24 (in 384-well plates) or column 48 (in 1536-well plates). The final concentration of TAK-593 in the assay should be 1 uM. These wells will serve as positive control wells.
# Step 2. Pre-incubation of inhibitors with kinase: Add 2 μL/well 2× kinase solution. Centrifuge at 1000 rpm for 1 min. Incubate at room temperature for 30 min.
# Step 3. Kinase cascade reaction: Add 2 μL/well 2× substrate/ATP solution to initiate kinase reactions. Centrifuge at 1000 rpm for 1 min. Incubate at room temperature for 180 min.
# Final concentrations of components in the assay:
# Step 4. Quench: Add 2 uL/well ADP Glo Reagent+0.05% CHAPS. Centrifuge at 1000 rpm for 1 min; Incubate at room temperature for one hour.
# Step 5. Detection: Add 2 uL/well Kinase Detection Reagent+0.05% CHAPS. Centrifuge at 1000 rpm for 1 min; Incubate at room temperature for 1 hour; Read Luminescence on a plate reader.
# % Inhibition: % Inhibition=(NC−sample)/(NC−PC)*100 where NC is the mean of negative control (reactions without inhibitor), and PC is the mean of positive control (1 μM TAK-593).
# IC50 values are determined from a 4-parameter fit, using the following equation: Y=Bottom+(Top−Bottom)/(1+10^(Log IC50-X)*Hill Slope), where X=log10 of the compound concentration; top can be defined by PC; bottom defined by NC.
# [4] = biological target: PDGFRβ (Rattus norvegicus (Rat), UniProt Q05030); experiment: PDGFRβ Cellular Assay (PDGFRb P-Y751 HTRF, PDGF-BB stimulated A10 cells); format: cell-based
# Procedure: Cell Culture and Preparation: Cells are cultured according to ATCC procedure (5) with the addition of the antibiotic penicillin-streptomycin. If working from frozen, cells should be thawed according to ATCC procedure. Depending on the cell density of frozen vial, cells will need time to recover from thaw. An 80% confluent T75 flask should be enough for one 384 well plate.
# Stock Solutions: Rat PDGFBB. A 100 ug/mL stock is prepared by reconstituting 50 ug in 500 μL of 4 mM HCl and 0.1% BSA. It can be stored for a month at 4° C., or aliquoted out and frozen in the −20/−80° C. to avoid multiple free-thaw cycles.
# 1× Cisbio cell lysis buffer. The cell lysis buffer is diluted 4-fold with molecular grade water. The blocking agent is then diluted 25-fold in the diluted lysis buffer.
# Antibody solutions. Equal amounts d2 and cryptate antibody are diluted 20-fold in detection buffer.
# Rat PDGFBB. A working stock of 100 ng/mL is created from the stock solution in 10% FBS culture media.
# Step 1: Plating Cells: Media from the A10 cell flask is aspirated. The cells are rinsed with PBS and then trypsinized to disperse the cell layer. The cells are then pelleted are resuspended to 1.25e5 cells/mL. […] Plates are covered and placed in the incubator (37° C. 5% CO2) overnight to allow cells to adhere.
# Step 2: Compound Dispense: Approximately 18 hours after plating, dispense 40 nL compound onto cells using Echo. […] The plate is returned to the incubator for 3 hours.
# After 10 minutes the media is removed by flicking the plate.
# Step 4: Cell lysis and antibody addition: 20 uL lysis buffer per well is added to the plate via Tempest. 5 uL antibody solution is added per well via the Tempest. The plate is placed on the shaker at 230 rpm for 1 hour at room temperature.
# Step 5: Detection: The plate is read using the HTRF module on the BMG Pherastar. Data is analyzed using Genedata Screener.
# IC50 values are determined from a 4-parameter fit, using the following equation: Y=Bottom+(Top−Bottom)/(1+10((Log IC50−X)*Hill slope)), where X=log10 of the compound concentration; top can be defined by PC; bottom defined by NC.
# [5] = 800 μM ATP, 0.5 μM TK-substrate biotin peptide, 30 min pre-incubation, 3 hours reaction, read-out: PDGFR HTRF IC50
# [6] = A10 cells, 3 hours compound, 15 ng/mL PDGFbb for 10 minutes, read-out: PDGFR Cellular IC50
# Chain of PDGFRβ (Q05030 whole entry, looked up): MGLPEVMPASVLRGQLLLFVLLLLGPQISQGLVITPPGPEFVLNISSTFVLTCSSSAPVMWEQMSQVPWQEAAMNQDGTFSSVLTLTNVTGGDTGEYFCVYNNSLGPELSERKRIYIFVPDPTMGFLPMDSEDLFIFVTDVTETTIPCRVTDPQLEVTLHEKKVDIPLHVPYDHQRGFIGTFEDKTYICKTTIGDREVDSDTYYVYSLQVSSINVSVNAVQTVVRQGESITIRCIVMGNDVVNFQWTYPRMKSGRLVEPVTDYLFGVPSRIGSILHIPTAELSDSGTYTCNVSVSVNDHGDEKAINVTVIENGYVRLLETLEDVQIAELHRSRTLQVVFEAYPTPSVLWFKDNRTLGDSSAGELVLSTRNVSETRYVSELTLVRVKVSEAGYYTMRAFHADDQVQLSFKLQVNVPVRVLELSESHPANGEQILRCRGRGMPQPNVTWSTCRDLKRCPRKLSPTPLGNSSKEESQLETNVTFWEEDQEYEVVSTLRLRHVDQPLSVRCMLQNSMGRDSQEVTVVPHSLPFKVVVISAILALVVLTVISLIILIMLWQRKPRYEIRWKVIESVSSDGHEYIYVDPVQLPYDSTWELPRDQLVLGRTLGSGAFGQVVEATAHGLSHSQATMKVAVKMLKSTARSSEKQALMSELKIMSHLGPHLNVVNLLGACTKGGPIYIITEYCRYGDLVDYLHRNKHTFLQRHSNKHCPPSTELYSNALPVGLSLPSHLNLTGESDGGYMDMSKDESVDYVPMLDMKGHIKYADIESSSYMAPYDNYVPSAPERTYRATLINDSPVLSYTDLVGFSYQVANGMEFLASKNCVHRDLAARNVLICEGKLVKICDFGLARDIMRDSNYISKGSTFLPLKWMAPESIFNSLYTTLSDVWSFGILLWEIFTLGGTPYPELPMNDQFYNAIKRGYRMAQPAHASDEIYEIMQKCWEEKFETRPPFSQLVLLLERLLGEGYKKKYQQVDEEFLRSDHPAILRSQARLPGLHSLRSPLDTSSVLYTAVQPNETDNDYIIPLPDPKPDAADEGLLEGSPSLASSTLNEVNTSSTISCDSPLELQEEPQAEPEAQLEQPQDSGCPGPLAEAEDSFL
# Chain of His6-TEV-PDGFRβ (557-1016) (P09619 whole entry, looked up): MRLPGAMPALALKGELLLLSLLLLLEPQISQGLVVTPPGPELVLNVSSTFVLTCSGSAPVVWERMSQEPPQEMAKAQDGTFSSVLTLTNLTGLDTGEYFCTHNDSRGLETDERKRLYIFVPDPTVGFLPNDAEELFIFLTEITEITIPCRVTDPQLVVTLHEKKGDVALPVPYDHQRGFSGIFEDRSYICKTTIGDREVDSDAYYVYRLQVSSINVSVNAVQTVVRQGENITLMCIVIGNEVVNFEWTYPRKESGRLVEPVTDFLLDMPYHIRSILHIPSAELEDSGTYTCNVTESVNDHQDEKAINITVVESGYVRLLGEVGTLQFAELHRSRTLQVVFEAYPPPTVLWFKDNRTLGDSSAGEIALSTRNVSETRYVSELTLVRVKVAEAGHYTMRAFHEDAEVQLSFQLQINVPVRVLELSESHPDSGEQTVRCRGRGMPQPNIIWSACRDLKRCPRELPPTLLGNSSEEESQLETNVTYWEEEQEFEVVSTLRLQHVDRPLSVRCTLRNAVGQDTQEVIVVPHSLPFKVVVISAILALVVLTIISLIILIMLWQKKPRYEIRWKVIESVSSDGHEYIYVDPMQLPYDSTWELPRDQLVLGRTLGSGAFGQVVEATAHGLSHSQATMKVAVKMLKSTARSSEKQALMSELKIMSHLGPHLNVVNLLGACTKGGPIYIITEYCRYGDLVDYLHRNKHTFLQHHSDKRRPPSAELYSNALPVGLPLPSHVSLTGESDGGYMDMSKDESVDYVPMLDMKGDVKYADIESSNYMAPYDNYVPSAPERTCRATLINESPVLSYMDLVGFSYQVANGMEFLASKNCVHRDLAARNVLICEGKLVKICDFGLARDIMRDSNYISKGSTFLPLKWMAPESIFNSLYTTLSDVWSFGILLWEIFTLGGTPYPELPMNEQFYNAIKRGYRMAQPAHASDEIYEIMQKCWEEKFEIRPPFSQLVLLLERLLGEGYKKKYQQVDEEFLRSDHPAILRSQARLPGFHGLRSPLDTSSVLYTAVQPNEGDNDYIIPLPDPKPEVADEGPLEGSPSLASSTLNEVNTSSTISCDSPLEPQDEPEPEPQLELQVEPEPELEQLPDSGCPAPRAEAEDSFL
# Chain of Tb-labeled inactive PDGFRβ (P09619 whole entry, looked up): as above
# Chain of VEGFR2, unphosphorylated (P35968 whole entry, looked up): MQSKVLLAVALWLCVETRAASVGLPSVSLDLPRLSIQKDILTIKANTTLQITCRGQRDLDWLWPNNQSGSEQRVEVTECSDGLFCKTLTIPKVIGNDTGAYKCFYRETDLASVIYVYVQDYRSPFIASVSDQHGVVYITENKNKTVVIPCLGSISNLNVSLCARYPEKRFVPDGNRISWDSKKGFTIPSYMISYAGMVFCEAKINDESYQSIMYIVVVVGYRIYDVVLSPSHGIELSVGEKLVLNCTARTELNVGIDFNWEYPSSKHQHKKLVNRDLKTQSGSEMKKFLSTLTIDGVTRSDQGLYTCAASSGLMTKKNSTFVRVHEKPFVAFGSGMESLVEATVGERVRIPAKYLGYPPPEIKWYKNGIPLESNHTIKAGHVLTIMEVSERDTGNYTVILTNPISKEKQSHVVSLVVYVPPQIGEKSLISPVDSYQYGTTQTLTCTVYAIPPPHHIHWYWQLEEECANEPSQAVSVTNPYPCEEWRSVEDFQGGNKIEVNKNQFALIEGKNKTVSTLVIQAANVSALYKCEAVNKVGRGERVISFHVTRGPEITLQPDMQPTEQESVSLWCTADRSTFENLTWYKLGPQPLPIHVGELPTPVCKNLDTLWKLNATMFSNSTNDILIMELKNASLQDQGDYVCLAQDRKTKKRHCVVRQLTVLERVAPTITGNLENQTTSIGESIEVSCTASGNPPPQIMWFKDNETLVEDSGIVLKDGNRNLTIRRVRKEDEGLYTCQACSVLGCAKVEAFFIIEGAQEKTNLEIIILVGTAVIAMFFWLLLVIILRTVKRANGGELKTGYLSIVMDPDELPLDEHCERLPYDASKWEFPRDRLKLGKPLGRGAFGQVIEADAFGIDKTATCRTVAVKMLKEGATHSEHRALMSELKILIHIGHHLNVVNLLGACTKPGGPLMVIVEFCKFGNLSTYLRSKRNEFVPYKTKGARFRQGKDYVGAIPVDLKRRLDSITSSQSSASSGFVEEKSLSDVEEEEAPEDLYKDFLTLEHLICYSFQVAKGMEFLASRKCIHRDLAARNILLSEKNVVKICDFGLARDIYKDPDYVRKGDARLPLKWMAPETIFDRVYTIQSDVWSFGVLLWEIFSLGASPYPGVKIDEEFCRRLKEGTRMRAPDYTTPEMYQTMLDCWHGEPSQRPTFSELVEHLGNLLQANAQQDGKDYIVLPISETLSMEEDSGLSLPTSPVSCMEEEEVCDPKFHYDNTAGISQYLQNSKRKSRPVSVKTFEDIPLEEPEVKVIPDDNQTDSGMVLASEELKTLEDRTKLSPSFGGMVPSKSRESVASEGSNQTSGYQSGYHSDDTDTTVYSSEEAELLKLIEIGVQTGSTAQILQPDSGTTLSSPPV
Compound,IC50 ([1]; read-out: PDGFR Lantha IC50),"IC50 [2, 5]",IC50 [3],"IC50 [4, 6]",IC50 [1],IC50 [2],IC50 [4]
"Cc1ncc(C(=O)NCCN2CCCC2(C)C)cc1Nc1nn(C)c2nc(Nc3cccnc3)ncc12 [Example 42, N-(2-(2,2-dimethylpyrrolidin-1-yl)ethyl)-6-methyl-5-((1-methyl-6-(pyridin-3-ylamino)-1H-pyrazolo[3,4-d]pyrimidin-3-yl)amino)nicotinamide]",3.9 nM,0.6 nM,> 10000 nM,33.2 nM,,,
"Cc1ncc(C(=O)NCCC2CCCCC2)cc1Nc1nn(C)c2nc(Nc3ccnc(N4CCN(CCO)CC4)c3)ncc12 [Example 110, N-(2-cyclohexylethyl)-5-((6-((2-(4-(2-hydroxyethyl)piperazin-1-yl)pyridin-4-yl)amino)-1-methyl-1H-pyrazolo[3,4-d]pyrimidin-3-yl)amino)-6-methylnicotinamide]",3.9 nM,0.77 nM,143 nM,108 nM,,,
"COCCN(CCNC(=O)c1cnc(C)c(Nc2nn(C)c3nc(Nc4cnn(C)c4)ncc23)c1)C1CCC1 [Example 84, N-(2-(cyclobutyl(2-methoxyethyl)amino)ethyl)-6-methyl-5-((1-methyl-6-((1-methyl-1H-pyrazol-4-yl)amino)-1H-pyrazolo[3,4-d]pyrimidin-3-yl)amino)nicotinamide]",3.6 nM,0.39 nM,> 7500 nM,11.1 nM,,,
"Cc1ncc(C(=O)NCCN2CCCOCC2)cc1Nc1nn(C)c2nc(Nc3cnn(C)c3)ncc12 [Example 17, N-(2-(1,4-oxazepan-4-yl)ethyl)-6-methyl-5-((1-methyl-6-((1-methyl-1H-pyrazol-4-yl)amino)-1H-pyrazolo[3,4-d]pyrimidin-3-yl)amino)nicotinamide]",2.9 nM,0.48 nM,~6990 nM,68.3 nM,,,
"Cc1ncc(C(=O)NCCC2CCCCC2)cc1Nc1nn(C)c2nc(Nc3ccc(CC(=O)O)cc3)ncc12 [Example 104, 2-(4-((3-((5-((2-cyclohexylethyl)carbamoyl)-2-methylpyridin-3-yl)amino)-1-methyl-1H-pyrazolo[3,4-d]pyrimidin-6-yl)amino)phenyl)acetic acid]",2.4 nM,0.44 nM,77.2 nM,2360 nM,,,
"Cc1ncc(C(=O)NCCN2CCCC2(C)C)cc1Nc1nn(C)c2nc(Nc3ccncc3)ncc12 [Example 28, N-(2-(2,2-dimethylpyrrolidin-1-yl)ethyl)-6-methyl-5-((1-methyl-6-(pyridin-4-ylamino)-1H-pyrazolo[3,4-d]pyrimidin-3-yl)amino)nicotinamide]",3.8 nM,0.5 nM,~9180 nM,39.4 nM,,,
"Cc1ncc(NC(=O)CN(CCF)C2CCCC2)cc1Nc1nn(C)c2nc(Nc3cnn(C)c3)ncc12 [Example 133, 2-(cyclopentyl(2-fluoroethyl)amino)-N-(6-methyl-5-((1-methyl-6-((1-methyl-1H-pyrazol-4-yl)amino)-1H-pyrazolo[3,4-d]pyrimidin-3-yl)amino)pyridin-3-yl)acetamide]",2.4 nM,0.44 nM,5550 nM,4.1 nM,,,
"Cc1ncc(C(=O)NCCN2CCC[C@@H]2C)cc1Nc1nn(C)c2nc(Nc3cncnc3)ncc12 [Example 3, (S)-6-methyl-5-((1-methyl-6-(pyrimidin-5-ylamino)-1H-pyrazolo [3,4-d]pyrimidin-3-yl)amino)-N-(2-(2-methylpyrrolidin-1-yl)ethyl)nicotinamide]",6.8 nM,0.68 nM,> 7500 nM,113 nM,,,
"Cc1ncc(NC(=O)CN2CCC[C@@H]2C)cc1Nc1nn(C)c2nc(Nc3cn(C)cn3)ncc12 [Example 142, (S)—N-(6-methyl-5-((1-methyl-6-((1-methyl-1H-imidazol-4-yl)amino)-1H-pyrazolo[3,4-d]pyrimidin-3-yl)amino)pyridin-3-yl)-2-(2-methylpyrrolidin-1-yl)acetamide]",107 nM,4.66 nM,> 7500 nM,13.4 nM,,,
"CC[C@H]1COCCN1CCNC(=O)c1cnc(C)c(Nc2nn(C)c3nc(Nc4cnn(C)c4)ncc23)c1 [Example 81, (S)—N-(2-(3-ethylmorpholino)ethyl)-6-methyl-5-((1-methyl-6-((1-methyl-1H-pyrazol-4-yl)amino)-1H-pyrazolo[3,4-d]pyrimidin-3-yl)amino)nicotinamide]",,,2500 nM,,2.6 nM,0.42 nM,21.1 nM
